One may read the GI50 as the concentration at which growth is held to half of that of the control.

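1) Cells in 96-well plates. 2) Compound, 48 h, 5 concentrations. 3) Linear interpolation between surrounding doses. 4) Unreached endpoint = highest concentration. Abbreviation: GI50, concentration required for 50% inhibition of growth.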 The source made the active and inactive calls. No stated cut-off is given here; in the data, active = GI50 up to about 1.1 µM and inactive = higher. Bounds are passed on as bounds.

Experimental findings from ChEMBL document CHEMBL1201862, “PubChem BioAssay data set” (2004) are described below.

Test systems include UACC-257; Malme-3M; SR; DU-145; HT-29; TK-10; MDA-N; SF-295; SN12C; MDA-MB-231; T47D; MDA-MB-435; SF-268; 786-0; UACC-62; A498; SK-MEL-28; SW-620; SK-OV-3; COLO 205.
Holding throughout (experiment): DTP human tumour cell line panel, 48 h

Take `CC(/C=N/N(C)C1=NCCCCN1)=N/N(C)C1=NCCCCN1`: the GI50 in the experiment with UACC-257, in the experiment with Malme-3M, with SR, with DU-145, with HT-29 and with TK-10 was > 100 µM (inactive) each time. The GI50 with MDA-N, in the experiment on SF-295, with SN12C, in the experiment with MDA-MB-231, with T47D and in the experiment with MDA-MB-435 was > 100 µM (inactive) each time. Besides, the GI50 with SF-268 was > 100 µM (inactive); with 786-0, > 100 µM (inactive); in the experiment with UACC-62, > 100 µM (inactive); in the experiment with A498, 97.9 µM (inactive); with SK-MEL-28 it was > 100 µM (inactive); in the experiment with SW-620, > 100 µM (inactive). Further, the GI50 in the experiment with SK-OV-3 and in the experiment on COLO 205 was > 100 µM (inactive) in each case.
As for `O=c1[nH]c(C23CC4CC(CC(C4)C2)C3)cc2c1c(=O)oc1ccccc12`, the GI50 with UACC-257 is 19.8 µM (inactive); in the experiment on Malme-3M it was 3.65 µM (inactive); with SR it was 0.366 µM (active); in the experiment on DU-145, 6.31 µM (inactive); with HT-29, 3.52 µM (inactive); in the experiment on TK-10, 3.43 µM (inactive). Moreover, the GI50 in the experiment with MDA-N was 12.8 µM (inactive); in the experiment with SF-295, 3.71 µM (inactive); in the experiment on SN12C it was 9.18 µM (inactive); in the experiment on MDA-MB-231 it was 3.4 µM (inactive); in the experiment with T47D it was 8.89 µM (inactive); in the experiment with MDA-MB-435 it was 13.4 µM (inactive). Besides, the GI50 is 0.944 µM (active) with SF-268; 1.61 µM (inactive) in the experiment on 786-0; 13.4 µM (inactive) in the experiment with UACC-62; 2.26 µM (inactive) with A498; 5.86 µM (inactive) in the experiment with SK-MEL-28; 7.59 µM (inactive) with SW-620. Moreover, the GI50 in the experiment with SK-OV-3 was 3.25 µM (inactive); with COLO 205 it was 10 µM (inactive).
As to `O=c1c(F)cn2c(=O)n1CCCCCCCn1c(=O)c(F)cn(c1=O)CCCCCCC2`, the GI50 is 36.4 µM (inactive) in the experiment with UACC-257; 35.7 µM (inactive) in the experiment with Malme-3M; 39.4 µM (inactive) in the experiment on SR; 1.59 µM (inactive) with DU-145; 50.4 µM (inactive) in the experiment with HT-29; 90.2 µM (inactive) in the experiment with TK-10. Moreover, the GI50 was > 100 µM (inactive) in the experiment with MDA-N; > 100 µM (inactive) with SF-295; > 100 µM (inactive) in the experiment on SN12C; 34 µM (inactive) with MDA-MB-231; > 100 µM (inactive) in the experiment on T47D; 64.9 µM (inactive) in the experiment with MDA-MB-435. The GI50 in the experiment with SF-268 is 0.59 µM (active); with 786-0, 40.7 µM (inactive); in the experiment on UACC-62, 60.5 µM (inactive); with A498 it was 32 µM (inactive); in the experiment with SK-MEL-28 it was 3.13 µM (inactive); with SW-620, > 100 µM (inactive). Further, the GI50 with SK-OV-3 and in the experiment on COLO 205 was > 100 µM (inactive) throughout.
As to `C=C1C(=O)OC2CC(C)C3CC(O)OC(OCC)C3(C)CC12` (stereo not given), the GI50 with UACC-257 is 16.3 µM (inactive); in the experiment with Malme-3M, 10.9 µM (inactive); with SR, 13.6 µM (inactive); with DU-145, 33.6 µM (inactive); with HT-29 it was 17.8 µM (inactive); in the experiment with TK-10, 22 µM (inactive). For the same compound, the GI50 was 17.5 µM (inactive) with MDA-N; 26.6 µM (inactive) in the experiment with SF-295; 15.8 µM (inactive) in the experiment with SN12C; 17.5 µM (inactive) in the experiment on MDA-MB-231; 16.6 µM (inactive) in the experiment on T47D; 18 µM (inactive) in the experiment with MDA-MB-435. For the same compound, the GI50 in the experiment on SF-268 was 18 µM (inactive); in the experiment with 786-0, 10.2 µM (inactive); in the experiment with UACC-62 it was > 37.6 µM (inactive); with A498, 28.1 µM (inactive); in the experiment with SK-MEL-28, 13 µM (inactive); in the experiment with SW-620, 6.85 µM (inactive). Moreover, the GI50 is 27.5 µM (inactive) in the experiment on SK-OV-3 and 15.8 µM (inactive) with COLO 205.
As for `C[N+](C)([O-])CCCNc1c2ccccc2nc2cccc([N+](=O)[O-])c12`, the GI50 was 0.536 µM (active) with UACC-257; 0.173 µM (active) with Malme-3M; 0.0653 µM (active) with SR; 0.299 µM (active) in the experiment with DU-145; 0.179 µM (active) with HT-29; 0.982 µM (active) in the experiment on TK-10. Also, the GI50 in the experiment on MDA-N was 0.173 µM (active); in the experiment on SF-295, 0.592 µM (active); in the experiment on SN12C, 0.265 µM (active); with MDA-MB-231, 0.33 µM (active); in the experiment on T47D, 0.257 µM (active); in the experiment with MDA-MB-435, 0.226 µM (active). The GI50 in the experiment on SF-268 is 0.274 µM (active); with 786-0, 0.166 µM (active); in the experiment with UACC-62, 0.219 µM (active); with A498, 0.164 µM (active); with SK-MEL-28, 0.684 µM (active); in the experiment with SW-620, 0.203 µM (active). The GI50 is 0.631 µM (active) in the experiment on SK-OV-3 and 0.143 µM (active) in the experiment on COLO 205.
Turning to `COc1ccc(C2C3=C(COC3=O)OC(C)(C)Oc3cc4c(cc32)OCO4)cc1OC` (stereo not given), the GI50 with UACC-257 was 39.4 µM (inactive); in the experiment on Malme-3M, 29.7 µM (inactive); in the experiment with SR, 29.2 µM (inactive); in the experiment with DU-145, 42.1 µM (inactive); in the experiment on HT-29, 39.4 µM (inactive); with TK-10, 50.1 µM (inactive). Further, the GI50 with MDA-N is 19.8 µM (inactive); with SF-295 it was 29 µM (inactive); with SN12C, 51.9 µM (inactive); in the experiment on MDA-MB-231, 33.8 µM (inactive); with T47D, 37.5 µM (inactive); in the experiment on MDA-MB-435 it was 17.3 µM (inactive). The GI50 was 21.1 µM (inactive) in the experiment with SF-268; 41.9 µM (inactive) with 786-0; 34 µM (inactive) in the experiment on UACC-62; 23.1 µM (inactive) in the experiment with A498; 53.2 µM (inactive) with SK-MEL-28; 33.3 µM (inactive) in the experiment on SW-620. The GI50 in the experiment on SK-OV-3 was 50.5 µM (inactive); in the experiment on COLO 205 it was 20.9 µM (inactive).
As to `O=C(/C=C/c1ccc(O)c(O)c1)OCc1ccccc1` [BENZYL CAFFEATE], the GI50 is 21.2 µM (inactive) in the experiment on UACC-257; 11.8 µM (inactive) in the experiment with Malme-3M; 3.74 µM (inactive) in the experiment with SR; 15.1 µM (inactive) in the experiment on DU-145; 32.3 µM (inactive) in the experiment on HT-29; 15.4 µM (inactive) in the experiment on TK-10. Further, the GI50 is 4.4 µM (inactive) in the experiment with MDA-N; 11.2 µM (inactive) in the experiment with SF-295; 11.6 µM (inactive) in the experiment with SN12C; 21.6 µM (inactive) in the experiment with MDA-MB-231; 12.1 µM (inactive) in the experiment on T47D; 6.27 µM (inactive) in the experiment with MDA-MB-435. Besides, the GI50 in the experiment with SF-268 was 10.9 µM (inactive); in the experiment on 786-0, 14.7 µM (inactive); in the experiment with UACC-62, 6.58 µM (inactive); with A498, 20.5 µM (inactive); with SK-MEL-28, 6.37 µM (inactive); in the experiment on SW-620, 17.4 µM (inactive). The GI50 is 18.3 µM (inactive) in the experiment on SK-OV-3 and 22.4 µM (inactive) in the experiment on COLO 205.
Take `CC(C)(S)C(N)C(=O)O` (stereo not drawn) [DL-PENICILLAMINE]: the GI50 in the experiment on UACC-257, in the experiment with Malme-3M, with SR, with DU-145, in the experiment with HT-29 and in the experiment on TK-10 was > 100 µM (inactive) in each case. Also, the GI50 in the experiment on MDA-N, with SF-295, in the experiment on SN12C, in the experiment on MDA-MB-231, in the experiment on T47D and with MDA-MB-435 was > 100 µM (inactive) in each case. For the same compound, the GI50 in the experiment on SF-268, in the experiment on 786-0, in the experiment on UACC-62, in the experiment on A498, in the experiment on SK-MEL-28 and with SW-620 was > 100 µM (inactive) each time. The GI50 in the experiment with SK-OV-3 and with COLO 205 was > 100 µM (inactive) in each case.
